From publication PMC6694038, “Pharmacogenomic–pharmacokinetic study of selective estrogen-receptor modulators with intra-patient dose escalation in breast cancer” (Breast Cancer (Tokyo, Japan), 2019)
“Also recorded” adds a separate entry of the source. Where two headings read alike, the source gives them in different places.

Columns and labels:
[1] = Hot flush grade (CTCAE v3.0) in the screening study; type: in vivo, breast cancer patients; details: screening study
Excerpt: (§1) We obtained data on compliance and the grade of hot flush as defined by the Common Terminology Criteria for Adverse Events v3.0.

[2] = Total activity: sum of plasma concentrations of each active metabolite adjusted by in vitro activity; type: in vivo, breast cancer patients
Description: Blood samples for PK analysis were obtained from patients who had good compliance with taking medications 2–4 h after taking anti-estrogens. […] The interday variability and intraday variability for all compounds are within 15%.

[3] = Excerpt: Written informed consent was obtained from all the participants included in the study. The patient enrolment period for the screening study started on February 1, 2009 and ended on July 31, 2012.
as §1
The p value was not calculated if there were no events.

Structure (SMILES): CN(C)CCOc1ccc(/C(=C(/CCCl)c2ccccc2)c2ccccc2)cc1 [TOR, toremifene]
- Hot flush grade 0, % of patients ([1]; TOR 40 mg): 57.4%
- Hot flush grade 0, patients ([1]; TOR 40 mg): 35
- Hot flush grade 1, % of patients ([1]; TOR 40 mg): 32.8%
- Hot flush grade 1, patients ([1]; TOR 40 mg): 20
- Hot flush grade 2, % of patients ([1]; TOR 40 mg): 9.8%
- Hot flush grade 2, patients ([1]; TOR 40 mg): 6
- Hot flush grade 3, % of patients ([1]; TOR 40 mg): 0.0%
- Hot flush grade 3, patients ([1]; TOR 40 mg): 0
- Hot flush grade 0, % of patients ([1]; TOR 120 mg): 88.9%
- Hot flush grade 0, patients ([1]; TOR 120 mg): 24
- Hot flush grade 1, % of patients ([1]; TOR 120 mg): 11.1%
- Hot flush grade 1, patients ([1]; TOR 120 mg): 3
- Hot flush grade 2, % of patients ([1]; TOR 120 mg): 0.0%
- Hot flush grade 2, patients ([1]; TOR 120 mg): 0
- Hot flush grade 3, % of patients ([1]; TOR 120 mg): 0.0%
- Hot flush grade 3, patients ([1]; TOR 120 mg): 0
- Grade and frequency of hot flushes compared with TAM 20 mg or TOR 40 mg ([1]; patients taking TOR 120 mg): lower grade and frequency of hot flushes
- Total activity on continuing the same dose ([2]; TOR 120 mg for up to 6 months, trend for decrease after 24 weeks): remained constant
- Change of total activity after increasing the dose ([2]; TOR from 40 to 120 mg, p < 0.01): increased significantly; also recorded: increased by at least twofold
- Cre elevation All grade, % of patients ([3]; TOR 40 mg): 36.4%
- Cre elevation All grade, patients ([3]; TOR 40 mg): 4
- Cre elevation ≧ G2, % of patients ([3]; TOR 40 mg): 0 (0) %
- Cre elevation ≧ G2, patients ([3]; TOR 40 mg): 0 (0)
- GOT elevation All grade, % of patients ([3]; TOR 40 mg): 0 (0) %
- GOT elevation All grade, patients ([3]; TOR 40 mg): 0 (0)
- GOT elevation ≧ G2, % of patients ([3]; TOR 40 mg): 0 (0) %
- GOT elevation ≧ G2, patients ([3]; TOR 40 mg): 0 (0)
- GPT elevation All grade, % of patients ([3]; TOR 40 mg): 0 (0) %
- GPT elevation All grade, patients ([3]; TOR 40 mg): 0 (0)
- GPT elevation ≧ G2, % of patients ([3]; TOR 40 mg): 0 (0) %
- GPT elevation ≧ G2, patients ([3]; TOR 40 mg): 0 (0)
- Hot flush G0, % of patients ([3]; TOR 40 mg): 100%
- Hot flush G0, patients ([3]; TOR 40 mg): 14
- Hot flush G1, % of patients ([3]; TOR 40 mg): 0 (0) %
- Hot flush G1, patients ([3]; TOR 40 mg): 0 (0)
- Hot flush G2, % of patients ([3]; TOR 40 mg): 0 (0) %
- Hot flush G2, patients ([3]; TOR 40 mg): 0 (0)
- Hyperglycemia All grade, % of patients ([3]; TOR 40 mg): 0 (0) %
- Hyperglycemia All grade, patients ([3]; TOR 40 mg): 0 (0)
- Hyperglycemia ≧ G2, % of patients ([3]; TOR 40 mg): 0 (0) %
- Hyperglycemia ≧ G2, patients ([3]; TOR 40 mg): 0 (0)
- LDH elevation All grade, % of patients ([3]; TOR 40 mg): 0 (0) %
- LDH elevation All grade, patients ([3]; TOR 40 mg): 0 (0)
- LDH elevation ≧ G2, % of patients ([3]; TOR 40 mg): 0 (0) %
- LDH elevation ≧ G2, patients ([3]; TOR 40 mg): 0 (0)
- LDL elevation All grade, % of patients ([3]; TOR 40 mg): 0 (0) %
- LDL elevation All grade, patients ([3]; TOR 40 mg): 0 (0)
- LDL elevation ≧ G2, % of patients ([3]; TOR 40 mg): 0 (0) %
- LDL elevation ≧ G2, patients ([3]; TOR 40 mg): 0 (0)
- Low PLT All grade, % of patients ([3]; TOR 40 mg): 0 (0) %
- Low PLT All grade, patients ([3]; TOR 40 mg): 0 (0)
- Low PLT ≧ G2, % of patients ([3]; TOR 40 mg): 0 (0) %
- Low PLT ≧ G2, patients ([3]; TOR 40 mg): 0 (0)
- Low WBC All grade, % of patients ([3]; TOR 40 mg): 11.1%
- Low WBC All grade, patients ([3]; TOR 40 mg): 1
- Low WBC ≧ G2, % of patients ([3]; TOR 40 mg): 11.1%
- Low WBC ≧ G2, patients ([3]; TOR 40 mg): 1
- T. Bil elevation All grade, % of patients ([3]; TOR 40 mg): 0 (0) %
- T. Bil elevation All grade, patients ([3]; TOR 40 mg): 0 (0)
- T. Bil elevation ≧ G2, % of patients ([3]; TOR 40 mg): 0 (0) %
- T. Bil elevation ≧ G2, patients ([3]; TOR 40 mg): 0 (0)
- TG elevation All grade, % of patients ([3]; TOR 40 mg): 12.5%
- TG elevation All grade, patients ([3]; TOR 40 mg): 1
- TG elevation ≧ G2, % of patients ([3]; TOR 40 mg): 0 (0) %
- TG elevation ≧ G2, patients ([3]; TOR 40 mg): 0 (0)
- Weight, max ([3]; TOR 40 mg): 73.4 kg
- Weight, mean ([3]; TOR 40 mg): 53.2 kg
- Weight, median ([3]; TOR 40 mg): 51.7 kg
- Weight, min ([3]; TOR 40 mg): 45.0 kg
- Cre elevation All grade, % of patients ([3]; TOR 120 mg (1)): 27.3%
- Cre elevation All grade, patients ([3]; TOR 120 mg (1)): 3
- Cre elevation ≧ G2, % of patients ([3]; TOR 120 mg (1)): 0 (0) %
- Cre elevation ≧ G2, patients ([3]; TOR 120 mg (1)): 0 (0)
- GOT elevation All grade, % of patients ([3]; TOR 120 mg (1)): 16.7%
- GOT elevation All grade, patients ([3]; TOR 120 mg (1)): 2
- GOT elevation ≧ G2, % of patients ([3]; TOR 120 mg (1)): 8.3%
- GOT elevation ≧ G2, patients ([3]; TOR 120 mg (1)): 1
- GPT elevation All grade, % of patients ([3]; TOR 120 mg (1)): 8.3%
- GPT elevation All grade, patients ([3]; TOR 120 mg (1)): 1
- GPT elevation ≧ G2, % of patients ([3]; TOR 120 mg (1)): 8.3%
- GPT elevation ≧ G2, patients ([3]; TOR 120 mg (1)): 1
- Hot flush G0, % of patients ([3]; TOR 120 mg (1)): 69.2%
- Hot flush G0, patients ([3]; TOR 120 mg (1)): 9
- Hot flush G1, % of patients ([3]; TOR 120 mg (1)): 15.4%
- Hot flush G1, patients ([3]; TOR 120 mg (1)): 2
- Hot flush G2, % of patients ([3]; TOR 120 mg (1)): 15.4%
- Hot flush G2, patients ([3]; TOR 120 mg (1)): 2
